Data taken from patent US20260176289A1, “SMALL MOLECULE INHIBITORS OF KRAS PROTEINS” (Merck Sharp & Dohme LLC, priority 2022, published 2026).
Like-named read-outs stand apart in the source and are kept apart here.

What was measured:
MKN-1 cells = assay: Cellular phospho-ERK assay, MKN-1 cells (amplified wild-type KRAS); format: cell-based; conditions: read-out: MKN1 pERK IC50
Procedure, shortened: (§1)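 Cells were seeded overnight, then treated 2 h at 37° C with compound in a 10-point, 1:3 titration from 30 μM top final concentration. Lysates were assayed by AlphaLISA SureFire Ultra for p-ERK and total ERK. IC50 came from a 4-parameter logistic fit of the p-ERK/total ERK ratio.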

[1] = target: KRAS-G12C (C51S/C80L/C118S) (Homo sapiens, UniProt P01116, C118S/C51S/C80L/G12C); assay: SOS-catalyzed nucleotide exchange assay (Procedure A, TR-FRET), KRAS-G12C; format: biochemical; conditions: nucleotide exchange, Procedure A; read-out: KRAS G12C GNE IC50
Procedure, shortened: (§2)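 Signal ratio (520/495 nm, excitation 340 nm) reports Bodipy-GDP retention on biotinylated RAS after SOS-catalyzed exchange with 3 mM GTP. SOS was 40 nM, except 160 nM for G12V. Room-temperature exchange lasted 60 min (90 min for G12V), following a 60 min compound preincubation.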

KRAS-G12D = KRAS-G12D (Homo sapiens, UniProt P01116, G12D); assay: SOS-catalyzed nucleotide exchange assay (Procedure A, TR-FRET), KRAS-G12D; format: biochemical; conditions: nucleotide exchange, read-out: KRAS G12D GNE IC50
Procedure, shortened: as §2

KRAS-G12V = KRAS-G12V (Homo sapiens, UniProt P01116, G12V); assay: SOS-catalyzed nucleotide exchange assay (Procedure A, TR-FRET), KRAS-G12V; format: biochemical; conditions: nucleotide exchange, read-out: KRAS G12V GNE IC50
Procedure, shortened: as §2

SW620 cells = assay: Cellular phospho-ERK assay, SW620 cells (homozygous KRAS-G12V); format: cell-based; conditions: read-out: SW620 pERK IC50
Procedure, shortened: as §1

AsPC-1 cells = assay: Cellular phospho-ERK assay, AsPC-1 cells (homozygous KRAS-G12D); format: cell-based; conditions: read-out: AsPC1 pERK IC50
Procedure, shortened: as §1

KRAS-G13D = KRAS-G13D (Homo sapiens, UniProt P01116, G13D); assay: SOS-catalyzed nucleotide exchange assay (Procedure A, TR-FRET), KRAS-G13D; format: biochemical; conditions: nucleotide exchange, Procedure A; read-out: KRAS G13D GNE IC50
KRAS-WT = KRAS-WT (Homo sapiens, UniProt P01116); assay: SOS-catalyzed nucleotide exchange assay (Procedure A, TR-FRET), KRAS-WT; format: biochemical; conditions: nucleotide exchange, read-out: KRAS WT GNE IC50
Procedure, shortened: as §2

[2] = Homo sapiens, 2 hours compound incubation
[3] = Homo sapiens, SW-620, 2 hours compound incubation
[4] = Homo sapiens, ASPC1, 2 h, 2 hours compound incubation
[5] = Homo sapiens, amplified wild-type KRAS, 2 hours
[6] = Homo sapiens, SW-620, KRAS-G12V, 2 hours
[7] = Homo sapiens, ASPC1, 2 h, KRAS-G12D, 2 hours

## C=C(C)c1c(Cl)cc2[nH]ncc2c1-c1nccc2c1sc1nc(OC[C@@]34CCCN3C[C@H](F)C4)nc(N3CCOC[C@@](C)(O)C3)c12 [Ex-142, (6S)-4-(8-(6-chloro-5-(prop-1-en-2-yl)-1H-indazol-4-yl)-2-(((2R,7aS)-2-fluoro-tetrahydro-1H-pyr-rolizin-7a(5H)-yl)-methoxy)pyrido [4′,3′:4,5]thieno[2,3-d]pyrimidin-4-yl)-6-methyl-1,4-oxaze-pan-6-ol]
MKN-1 cells; [2]
  IC50: 120 nM
[1]
  IC50: 34 nM
KRAS-G12D
  IC50: 19.2 nM
KRAS-G12V
  IC50: 29.3 nM
SW620 cells; [3]
  IC50: 96.7 nM
AsPC-1 cells; [4]
  IC50: 82.1 nM
KRAS-G13D
  IC50: 31.1 nM
KRAS-WT
  IC50: 49.2 nM

## C[C@@]1(O)COCCN(c2nc(OC[C@@]34CCCN3C[C@H](F)C4)nc3sc4c(-c5c(C6CC6)c(Cl)cc6[nH]ncc56)nccc4c23)C1 [Ex-144, (6S)-4-(8-(6-chloro-5-cyclopropyl-1H-indazol-4-yl)-2-(((2R,7aS)-2-fluoro-tetrahydro-1H-pyr-rolizin-7a(5H)-yl)-methoxy)pyrido [4′,3′:4,5]thieno[2,3-d]pyrimidin-4-yl)-6-methyl-1,4-oxaze-pan-6-ol]
MKN-1 cells; [2]
  IC50: 53.2 nM
[1]
  IC50: 46 nM
KRAS-G12D
  IC50: 6.2 nM
KRAS-G12V
  IC50: 14.3 nM
SW620 cells; [3]
  IC50: 73 nM
AsPC-1 cells; [4]
  IC50: 41.7 nM
KRAS-G13D
  IC50: 10.7 nM
KRAS-WT
  IC50: 14.6 nM

## C=C(F)c1c(C(F)(F)F)cc2[nH]ncc2c1-c1nccc2c1sc1nc(OC[C@@]34CCCN3C[C@H](F)C4)nc(N3CCOC[C@@](C)(O)C3)c12 [Ex-58, (6S)-4-(2-(((2R,7aS)-2-fluorotetrahydro-1H-pyrrolizin-7a(5H)-yl)methoxy)-8-(5-(1-fluorovinyl)-6-(trifluoromethyl)-1H-indazol-4-yl)pyrido[4′,3′:4,5]thieno [2,3-d]pyrimidin-4-yl)-6-methyl-1,4-oxazepan-6-ol]
MKN-1 cells; [5]
  IC50: 35.5 nM
[1]
  IC50: 16.5 nM
KRAS-G12D
  IC50: 5.41 nM
KRAS-G12V
  IC50: 13.5 nM
SW620 cells; [6]
  IC50: 36.2 nM
AsPC-1 cells; [7]
  IC50: 57.1 nM
KRAS-G13D
  IC50: 10.4 nM
KRAS-WT
  IC50: 17.6 nM

## C[C@@]1(O)COCCN(c2nc(OC[C@@]34CCCN3C[C@H](F)C4)nc3sc4c(-c5c(C6CC6)c(C(F)(F)F)cc6[nH]ncc56)nccc4c23)C1 [Ex-76, (6S)-4-(8-(5-cyclopropyl-6-(trifluoromethyl)-1H-indazol-4-yl)-2-(((2R,7aS)-2-fluorotetrahydro-1H-pyrrolizin-7a(5H)-yl)methoxy)pyrido[4′,3′:4,5]thi-eno[2,3-d]pyrimidin-4-yl)-6-methyl-1,4-oxazepan-6-ol]
MKN-1 cells; [5]
  IC50: 28.1 nM
[1]
  IC50: 55.8 nM
KRAS-G12D
  IC50: 5.46 nM
KRAS-G12V
  IC50: 20.4 nM
SW620 cells; [6]
  IC50: 18.5 nM
AsPC-1 cells; [7]
  IC50: 24.1 nM
KRAS-G13D
  IC50: 7.22 nM
KRAS-WT
  IC50: 8.47 nM

## C#Cc1cc(F)cc2cc3[nH]ncc3c(-c3nccc4c3sc3nc(OC[C@@]56CCCN5C[C@H](F)C6)nc(N5CCOC[C@@](C)(O)C5)c34)c12 [Ex-165]
MKN-1 cells; [2]
  IC50: 41.5 nM
[1]
  IC50: 21.7 nM
KRAS-G12D
  IC50: 6.79 nM
KRAS-G12V
  IC50: 11 nM
SW620 cells; [3]
  IC50: 31.2 nM
AsPC-1 cells; [4]
  IC50: 40.7 nM
KRAS-G13D
  IC50: 14.1 nM
KRAS-WT
  IC50: 18.6 nM

## C=C1CN2C[C@H](F)C[C@@]2(COc2nc(N3CCOC[C@@](C)(O)C3)c3c(n2)sc2c(-c4c(C5CC5)c(Cl)cc5[nH]ncc45)nccc23)C1 [Ex-223, (6S)-4-(8-(6-chloro-5-cyclopropyl-1H-indazol-4-yl)-2-(((2R,7aR)-2-fluoro-6-methylenetetra-hydro-1H-pyrrol-izin-7a(5H)-yl)methoxy)pyrido [4′,3′:4,5]thieno[2,3-d]pyrimidin-4-yl)-6-methyl-1,4-oxaze-pan-6-ol]
MKN-1 cells; [2]
  IC50: 42.9 nM
[1]
  IC50: 111 nM
KRAS-G12D
  IC50: 9.27 nM
KRAS-G12V
  IC50: 34.1 nM
SW620 cells; [3]
  IC50: 23.6 nM
AsPC-1 cells; [4]
  IC50: 63.8 nM
KRAS-G13D
  IC50: 37.6 nM
KRAS-WT
  IC50: 24.5 nM

## (6S)-4-(8-(6-chloro- 5-cyclopropyl-1H- indazol-4-yl)-2- (((6'R,7a′R)-6′- fluorodihydro- 1′H,3′H-spiro[cyclo- propane-1,2′-pyr- rolizin]-7a′(5′H)- yl)methoxy)pyrido [4′,3′:4,5]thieno[2,3- d]pyrimidin-4-yl)-6- methyl-1,4-oxaze- pan-6-ol [Ex-218]
MKN-1 cells; 2 hours compound incubation
  IC50: 37.4 nM
[1]
  IC50: 77.4 nM
KRAS-G12D
  IC50: 3.42 nM
KRAS-G12V
  IC50: 8.69 nM
SW620 cells; 2 hours compound incubation
  IC50: 20.2 nM
AsPC-1 cells; 2 hours compound incubation
  IC50: 31.9 nM
KRAS-G13D
  IC50: 7.46 nM
KRAS-WT
  IC50: 6.76 nM

## C[C@@]1(O)COCCN(c2nc(OC[C@@]34CCCN3C/C(=C\F)C4)nc3sc4c(-c5c(C6CC6)c(Cl)cc6[nH]ncc56)nccc4c23)C1 [Ex-208, (6S)-4-(8-(6-chloro-5-cyclopropyl-1H-indazol-4-yl)-2-(((S,Z)-2-(fluoromethylene)tetrahydro-1H-pyrrolizin-7a(5H)-yl)methoxy)pyrido[4′,3′:4,5]thieno[2,3-d]pyrimidin-4-yl)-6-methyl-1,4-oxazepan-6-ol]
MKN-1 cells; [2]
  IC50: 63.6 nM
[1]
  IC50: 44.5 nM
KRAS-G12D
  IC50: 2.44 nM
KRAS-G12V
  IC50: 11.1 nM
SW620 cells; [3]
  IC50: 17 nM
AsPC-1 cells; [4]
  IC50: 20.4 nM
KRAS-G13D
  IC50: 20.2 nM
KRAS-WT
  IC50: 5.79 nM

## C=C(C)c1c(C(F)(F)F)cc2[nH]ncc2c1-c1nccc2c1sc1nc(OCC34CCCN3CC(F)C4)nc(N3CCOCC(C)(O)C3)c12 [Ex-60, (6S)-4-(2-(((2R,7aS)-2-fluorotetrahydro-1H-pyrrolizin-7a(5H)-yl)methoxy)-8-(5-(prop-1-en-2-yl)-6-(trifluoromethyl)-1H-indazol-4-yl)pyrido[4′,3′:4,5]thieno [2,3-d]pyrimidin-4-y])-6-methyl-1,4-oxazepan-6-ol]
MKN-1 cells; [5]
  IC50: 44.5 nM
[1]
  IC50: 22.4 nM
KRAS-G12D
  IC50: 9.46 nM
KRAS-G12V
  IC50: 18.6 nM
SW620 cells; [6]
  IC50: 41.9 nM
AsPC-1 cells; [7]
  IC50: 99.5 nM
KRAS-G13D
  IC50: 15.8 nM
KRAS-WT
  IC50: 29 nM

## C[C@@]1(O)COCCN(c2nc(OC[C@@]34CCCN3C[C@@]3(CC3(F)F)C4)nc3sc4c(-c5c(C6CC6)c(Cl)cc6[nH]ncc56)nccc4c23)C1 [Ex-211, (6S)-4-(8-(6-chloro-5-cyclopropyl-1H-indazol-4-yl)-2-(((1S,7a′S)-2,2-difluorodihydro-1′H,3′H-spiro[cyclo-propane-1,2′-pyrrol-izin]-7a′(5′H)-yl)-methoxy)pyrido [4′,3′:4,5]thieno[2,3-d]pyrimidin-4-yl)-6-methyl-1,4-oxaze-pan-6-ol]
MKN-1 cells; [2]
  IC50: 83 nM
[1]
  IC50: 45.4 nM
KRAS-G12D
  IC50: 5.85 nM
KRAS-G12V
  IC50: 12.1 nM
SW620 cells; [3]
  IC50: 49.4 nM
AsPC-1 cells; [4]
  IC50: 56.9 nM
KRAS-G13D
  IC50: 15 nM
KRAS-WT
  IC50: 16.5 nM

## C[C@@]1(O)COCCN(c2nc(OC[C@@]34CCCN3C[C@H](F)C4)nc3sc4c(-c5c(C6CCC6)c(Cl)cc6[nH]ncc56)nccc4c23)C1 [Ex-69, (6S)-4-(8-(6-chloro-5-cyclobutyl-1H-indazol-4-yl)-2-(((2R,7aS)-2-fluorotetrahydro-1H-pyrrolizin-7a(5H)-yl)methoxy)pyrido[4′,3′:4,5]thi-eno[2,3-d]pyrimidin-4-yl)-6-methyl-1,4-oxazepan-6-ol]
MKN-1 cells; [5]
  IC50: 52.7 nM
[1]
  IC50: 20.4 nM
KRAS-G12D
  IC50: 6.79 nM
KRAS-G12V
  IC50: 10.2 nM
SW620 cells; [6]
  IC50: 51.9 nM
AsPC-1 cells; [7]
  IC50: 68.5 nM
KRAS-G13D
  IC50: 12.5 nM
KRAS-WT
  IC50: 28.6 nM

## CC[C@@H]1CCCc2cc3[nH]ncc3c(-c3nccc4c3sc3nc(OC[C@@]56CCCN5C[C@H](F)C6)nc(N5CCOC[C@@](C)(O)C5)c34)c21 [Ex-176]
MKN-1 cells; [2]
  IC50: 44.8 nM
[1]
  IC50: 10.5 nM
KRAS-G12D
  IC50: 6.22 nM
KRAS-G12V
  IC50: 11.6 nM
SW620 cells; [3]
  IC50: 22.7 nM
AsPC-1 cells; [4]
  IC50: 51.9 nM
KRAS-G13D
  IC50: 12.5 nM
KRAS-WT
  IC50: 19.8 nM

## CN1CCC[C@H]1COc1nc(N2CCOC[C@@](C)(O)C2)c2c(n1)sc1c(-c3c(C4CC4)c(C(F)(F)F)cc4[nH]ncc34)nccc12 [Ex-79, (6S)-4-(8-(5-cyclopropyl-6-(trifluoromethyl)-1H-indazol-4-yl)-2-(((S)-1-methylpyrrolidin-2-yl)methoxy)pyrido[4′,3′:4.5]thi-eno[2,3-d]pyrimidin-4-yl)-6-methyl-1,4-oxazepan-6-ol]
MKN-1 cells; [5]
  IC50: 16.2 nM
[1]
  IC50: 57.9 nM
KRAS-G12D
  IC50: 5.84 nM
KRAS-G12V
  IC50: 10.8 nM
SW620 cells; [6]
  IC50: 8.94 nM
AsPC-1 cells; [7]
  IC50: 23.2 nM
KRAS-G13D
  IC50: 27.9 nM
KRAS-WT
  IC50: 8.2 nM
